Experimental findings from article PMC5679651, “Complex antigen presentation pathway for an HLA-A*0201-restricted epitope from Chikungunya 6K protein” (PLoS Neglected Tropical Diseases, 2017) are described below.

Assay [1] deals with CHIKV 6K51-59 epitope presentation by rVACV-CHIKV-infected HLA-A*0201+ DC. The assay is described as follows: cells. It is filed as cell-based, HLA-A*0201-transgenic mice.
The test system of assay [2] is VACV D12I251-259 epitope presentation by infected HLA-A*0201+ DC. It is filed as cell-based, HLA-A*0201-transgenic mice. The following applies: for percentage of inhibition of recognition by VACV D12I251-259-specific CD8+ T cells: SD.
Assay [3] has as its target HLA-A*0201 (Homo sapiens, UniProt P04439, /I218V/L300P/L318F/N151K/N90K/P208A/P217A/Q86G/Q94H/R138H/R169H/T345S). The assay is described as follows: biochemical. The format is binding. To be noted: HLA-A*0201-transfected TAP-deficient RMA-S cells, peptide 2 h 26°C then 2 h 37°C, concentration range 0.001-100 μM, mAb PA2.1, flow cytometry, mean ± SD of four independent experiments, read-out: HLA-A*0201 Affinity values, EC50.

The target in assay [4] is HLA-A*0201 (Homo sapiens, UniProt P04439, D140Y/D185E/D98H/E176V/E277Q/G131W/G231S/I119V/I121R/I166T/I218V/L300P/L318F/N151K/N90K/P208A/P217A/Q86G/Q94H/R138H/R169H/T345S). The assay is described as follows: biochemical. The following applies: HLA-A*0201-transfected TAP-deficient RMA-S cells; for binding to HLA-A*0201 (HLA-peptide surface complexes), in words: MHC-peptide complex stability assay. The format is binding.

In assay [5] the test system is CHIKV 6K peptide-specific CD8+ T cell lines. The format is cell-based, HLA-A*0201-transgenic mice. To be noted: ICS.
Setting [6] is: Mus musculus, T-cell, 5 h, read-out: percentage of inhibition of recognition by CHIKV 6K51-59-specific CD8+ T cells, SD.

Where two headings read alike, the source gives them in different places. Square brackets hold non-standard residues; d marks the D form. Ends that are not written are not given here. Peptide text beside a SMILES is read from it. * marks the point of attachment. Sta = CC(C)C[C@H](N)[C@@H](O)CC(=O)O; Isovaleryl = CC(C)CC(=O)*

Usually inhibition stands for the change of the read-out against control, counted positive when it falls. As for `CC(=O)N[C@@H](CSC(=O)[C@]1([C@@H](O)C(C)C)NC(=O)[C@H](C)[C@@H]1O)C(=O)O` [LC, Lactacystin], the inhibition at 10 µM in assay [1] (setting [6]) worked out at 83 ± 3%. Besides, in assay [2], the “effect on VACV D12I251-259 epitope presentation, in words” value is given as “lesser effect”.

As a reminder, the EC50 is the concentration needed to bring the measured effect to its halfway point. On to `CC(C)C[C@H](NC(=O)[C@H](CC(C)C)NC(=O)[C@H](CCCNC(=N)N)NC(=O)[C@H](CC(C)C)NC(=O)[C@H](CS)NC(=O)[C@H](CC(N)=O)NC(=O)[C@H](CS)NC(=O)[C@H](CC(C)C)NC(=O)[C@@H](N)C(C)C)C(=O)O` [6K 31–39] (H-VLCNCLRLL-OH), for which the EC50 at HLA-A*0201 [3] (SD) came to 5 ± 3 µM.

Take `CC(C)C[C@H](N)CS` [Leu-SH, Leucinthiol]: the “percentage of inhibition of recognition by CHIKV 6K51-59-specific CD8+ T cells” value in assay [1] (SD) stood at 91 ± 13%. Also, in assay [2], the “effect on VACV D12I251-259 epitope presentation, in words” value is given as “lesser effect”.

Consider `c1cnc2c(c1)ccc1cccnc12` [PHE, 1–10 Phenanthroline], for which, in assay [1], the “effect on recognition by CHIKV 6K51-59-specific CD8+ T cell line, in words” value (from here on “effect on recognition”) is given as “None of these inhibitors affected”.

On to `C[C@H]1CCC/C=C/[C@@H]2C[C@H](O)C[C@H]2[C@H](O)/C=C/C(=O)O1` [BFA, Brefeldin], for which, in assay [1], the “effect on recognition” value is on record as “completely inhibited”. Further, the “effect on VACV D12I251-259 epitope presentation, in words” value in assay [2] is listed as “complete inhibition”.

On to `CC(=O)N[C@@H](CC(C)C)C(=O)N[C@@H](CC(C)C)C(=O)N[C@H](C=O)CCCNC(=N)N` [LEU, Leupeptin], for which, in assay [1], the “effect on recognition” value was “None of these inhibitors affected”.

With `O=S(=O)(F)Cc1ccccc1` [PMSF, Phenylmethane sulfonylfluoride], the “effect on recognition” value in assay [1] is listed as “None of these inhibitors affected”.

ALIPLAALI [6K 22–30]: at HLA-A*0201 [3] (SD), the EC50 was 33 ± 28 µM.

“Decanoyl-Arg-Val-Lys-Arg-chloromethylketone [dec-RVKR]”: the “percentage of inhibition of recognition by CHIKV 6K51-59-specific CD8+ T cells” value in assay [1] (SD) was 43 ± 20%. Besides, the “percentage of inhibition of recognition by VACV D12I251-259-specific CD8+ T cells” value in assay [2] is given as 4 ± 6%.

For the compound ALIVLCNCL [6K 28–36], the “binding to HLA-A*0201 (HLA-peptide surface complexes), in words” value at HLA-A*0201 [4] is recorded as “not detected”. Moreover, the “HLA-A*0201 Affinity values, EC50” value on HLA-A*0201 [4] (peptide 2 h 26°C then 2 h 37°C, concentration range 0.001-100 μM, mAb PA2.1, flow cytometry, mean ± SD of four independent experiments) was “No binding”.

For the compound QALIPLAAL [6K 21–29], at HLA-A*0201 [4], the “binding to HLA-A*0201 (HLA-peptide surface complexes), in words” value was “residual”. Also, the EC50 on HLA-A*0201 [3] is more than 200 µM. Moreover, in assay [5], the “specific recognition of peptide-pulsed DC by CTL line, in words” value was “no specific recognition”.

ILDRIITNA [A10L 688-696]: the EC50 at HLA-A*0201 [3] (SD) was found to be 3 ± 3 µM.

Take TLAFLAVMSV [6K 45–54]: the EC50 at HLA-A*0201 [3] (SD) was 1 ± 0.5 µM.

As for `CC(C)C[C@H](NC(=O)[C@H]1O[C@@H]1C(=O)O)C(=O)NCCCCN=C(N)N` [E64], in assay [1], the “effect on recognition” value is “None of these inhibitors affected”.

For the compound `CC(C)CC(=O)N[C@H](C(=O)N[C@H](C(=O)N[C@@H](CC(C)C)[C@@H](O)CC(=O)N[C@@H](C)C(=O)N[C@@H](CC(C)C)[C@@H](O)CC(=O)O)C(C)C)C(C)C` [PEPST, Pepstatin] (Isovaleryl-VV[Sta]A[Sta]-OH), the “effect on recognition” value in assay [1] is “None of these inhibitors affected”.

Turning to `O=C(O)CN(CCN(CC(=O)O)CC(=O)O)CC(=O)O` [EDTA, Ethylenediaminetetraacetic acid], the “effect on recognition” value in assay [1] is reported as “unaffected”.

Take `COc1ccc(C[C@H](N)C(=O)N[C@H]2[C@@H](O)[C@H](n3cnc4c(N(C)C)ncnc43)O[C@@H]2CO)cc1` [PURO, Puromycin]: in assay [1] (setting [6]), the inhibition at 0.5 µg/mL was 47 ± 21%. Also, the “percentage of inhibition of recognition by VACV D12I251-259-specific CD8+ T cells” value in assay [2] was found to be 4 ± 6%.

Turning to `CC(C)C[C@H](NC(=O)[C@@H](O)[C@H](N)Cc1ccccc1)C(=O)O` [BEST, Bestatin], the “effect on recognition” value in assay [1] is reported as “unaffected”.

In the case of `CCN(CC)CCCC(C)Nc1ccnc2cc(Cl)ccc12` (stereo not drawn) [CQ, Chloroquine], the inhibition at 50 µM in assay [1] (setting [6]) was 69 ± 19%.

Consider `CC(C)C[C@H](NC(=O)[C@@H](NC(=O)[C@H](CCCCN)NC(=O)[C@H](CS)NC(=O)[C@H](CS)NC(=O)[C@H](CS)NC(=O)[C@@H]1CCCN1C(=O)[C@H](CC(C)C)NC(=O)[C@H](CC(C)C)NC(=O)[C@@H](N)CCCNC(=N)N)[C@@H](C)O)C(=O)O` [6K 37–46] (H-RLLPCCCKTL-OH), for which the 50% effective concentration (EC50) at HLA-A*0201 [3] (SD) was 8 ± 6 µM.

For VMSVGAHTV [6K 51–59], the EC50 on HLA-A*0201 [3] (SD) came out at 9 ± 1 µM.

With ALIPLAALIV [6K 22–31], at HLA-A*0201 [3] (SD), the EC50 stood at 21 ± 20 µM.
